Measured values taken from article PMC12682947, “Identification of New KCNT1‐Epilepsy Drugs by In Silico, Cell, and Drosophila Modeling” (Annals of Neurology, 2025).
Structures can show the parent of a compound that is named as a salt.

Legend:
[1] = test system: Drosophila KCNT1 mutant line G288S; assay: Bang-sensitive behavioral seizure assay, Drosophila KCNT1 mutant line G288S; type: in vivo, Drosophila melanogaster; conditions: drug in food
Text: (§1) The Drosophila melanogaster lines carrying the WT human KCNT1 transgene (NM_020822_3) or KCNT1 mutant G288S, R398Q or R928C transgene placed downstream of the yeast UAS promoter, have been described previously.[11] WT or mutant human UAS‐KCNT1 flies were crossed to flies expressing the GAL4 transcriptional activator under the control of the GAD1 promoter (GABAergic driver, Bloomington stock number 51630 P2) to drive expression of KCNT1 in GABAergic neurons, involved in neuronal inhibition.[11]
(§2) The bang‐sensitive behavioral assay (also known as the banging assay) was used to test for the presence of a seizure phenotype in Drosophila.[11], [30] Experiments were performed and scored, as previously described,[11] with a minimum of 50 Drosophila tested for each genotype and drug concentration.
(§3) Four drugs were selected for in vivo analysis to determine their effects on the seizure phenotypes in transgenic Drosophila lines with human mutant KCNT1 channels. […]
(§4) In all experiments, experimenters were not blinded to variants or treatments, nor were samples randomly assigned to groups. Sample sizes were not calculated in advance and no data were excluded from the analysis. Data were analyzed using GraphPad Prism 9 software (San Diego, CA, USA). […] All data passed normality and lognormality Shapiro–Wilk tests, determined by GraphPad Prism 9. […]

[2] = test system: Drosophila KCNT1 mutant line R928C; assay: Bang-sensitive behavioral seizure assay, Drosophila KCNT1 mutant line R928C; type: in vivo, Drosophila melanogaster; conditions: drug in food
Text: as §1, §2, §3, §4

## Cc1c(O)cccc1C(=O)N[C@@H](CSc1ccccc1)[C@H](O)CN1C[C@H]2CCCC[C@H]2C[C@H]1C(=O)NC(C)(C)C [nelfinavir mesylate]
[1]
  reduction of the seizure phenotype: 50%
[2]
  reduction of the seizure phenotype: 50%

## O=C(OCCN1CCN(c2cccc(C(F)(F)F)c2)CC1)c1ccccc1Nc1ccnc2cc(C(F)(F)F)ccc12 [antrafenine]
[1]
  reduction of the seizure phenotype: at least 50%
[2]
  reduction of the seizure phenotype: 25%
